Reference: patent US7785583B2, “In situ maturation of dendritic cells” (Argos Therapeutics, Inc., priority 2002, dated 2010)

Tests used:
[1] = system: OVA-expressing EL-4 cells; experiment: Induction of OVA-specific CTL in mice immunized with OVA mRNA transfected DC (standard cytotoxicity assay); assay type: in vivo, mice (C57BL/6)
Description: FIG. 4 is a graph depicting the induction of OVA CTL in mice immunized with OVA mRNA transfected DC. Mice were immunized as described in FIG. 3 except that DC were not stained with CFSE. Splenocytes were harvested after 8 days and either analyzed directly for CTL (left panel) or incubated for 5 days in the presence of OVA mRNA transfected DC (right panel). CTL activity was determined using a standard cytotoxicity assay and OVA-expressing EL-4 cells, and EL-4 cells as targets. (iDC: immature DC; mDC: mature DC; solid gray square: iDC and OVA-expressing EL-4 cells; solid black oval: […] adjuvant and OVA-expressing EL-4 cells; solid black square: mDC and OVA-expressing EL-4 cells; open gray square: iDC and EL4 cells; open black oval: […] adjuvant and EL4 cells; open black square: mDC and EL4 cells). FIG. 5 is a graph depicting the induction of OVA specific CTL with immature DC during in situ maturation with Imiquimod (sold under the trademark […] by 3M of St. Paul, Minn., United States of America) and poly arginine. Experimental details are as described for FIG. 4. Here, in addition to […] adjuvant, Imiquimod ([…] brand) and poly arginine (poly-arg) were used to induce local “inflammation” prior to immunization with the OVA mRNA transfected immature DC. The […] clinically approved cream formulation of Imiquimod was applied to the ear surface 15 minutes prior to DC injection. Poly-arg was injected into the ear pinna (50 μl; 100 μg/ml) 15 minutes prior to DC injection. (open square: iDC; solid circle: […] adjuvant; solid triangle: […] adjuvant; open triangle: iDC+poly-arginine; solid square: mDC). FIG. 6 is a graph depicting the induction of OVA specific CTL with immature DC during in situ maturation with Imiquimod ([…] brand). […] Antigen loaded immature or mature DC were injected into the ear pinna and mice were evaluated for (a) migration of the DC to the draining auricular lymph node or (b) induction of OVA CTL. […] See […], Mohr H., “A fluorescence-based assay for quantitation of lymphokine-activated killer cell activity”, J Immunol Methods (1989) 119:45-51.

[2] = system: immature DC injected into the ear pinna; experiment: Migration of CFSE-labelled injected DC to the draining auricular lymph node (flow cytometry); assay type: in vivo, mice (C57BL/6); conditions: interval between adjuvant application and DC injection extended to 4 hours; determined as in FIG. 3
Description: FIG. 3 depicts flow cytometry analysis of the migration of DC to the draining lymph nodes. Immature or mature DC were transfected with OVA mRNA and incubated with CFSE. Cells were washed and 3×10^5 DC were injected into the ear pinna. […] United States of America). Twenty-four hours post […] of the DC, the draining auricular lymph node was dissected, a cell suspension generated, and cells were analyzed by flow cytometry. To identify the DC subset, cells gated for CD11c^+ granular cells (upper panels) were analyzed for class II expression and CFSE content (lower panels). Injected DC are class II^high CFSE^+ (UR quadroon) whereas the class II^highCFSE^− represent the resident and newly arrived, endogenous, DC (UL quadroon). The percentages shown in the UR quadroons constitute the percentage of CFSE^+ DC injected into the ear found in the lymph node.
Marrow from tibias and femurs of C57BL/6 mice were harvested followed by treatment of the precursors with ammonium chloride Tris buffer for 3 min at 37° C. to deplete the red blood cells. The precursors were plated in RPMI-5% FCS with GM-CSF (15 ng/ml) and IL-4 (10 ng/ml). GM-CSF-containing supernatant was harvested after 24 h capillary culture from GM-CSF producing melanoma cell line (F10.9/GM-CSF) and IL-4 was obtained from Peprotech (Rocky Hill, N.J., United States of America). The concentration of GM-CSF used was determined by ELISA. […]

[3] = FIG. 5, injection site pretreated 15 minutes prior to injection of OVA mRNA transfected immature DC

poly arginine [poly-arg] was tested, and the “CTL response (OVA-specific CTL)” value [1, 3] was “the effect of poly-arg is small”.

For `CC(C)Cn1cnc2c(N)nc3ccccc3c21` [Imiquimod], the “CTL response (OVA-specific CTL)” value [1, 3] was “almost as effective as ADJUPRIME™ adjuvant”, the “CTL response (OVA-specific CTL)” value ([1]; FIG. 6, Imiquimod (ALDARA brand) applied 4 hours before injection of OVA mRNA transfected immature DC) was “more potent CTL response than the ex vivo matured DC” and the “migration, % of the injected DC” value [2] was 9.2%.
